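All cell lines were grown in 96-well plates and treated with compound for 48 hours. TGI: concentration producing complete growth inhibition.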
Columns and labels:
Experiment in all cases: DTP human tumour cell line panel, 48 h
[1] = test system: RXF 393 renal
[2] = test system: NCI-H23 lung
[3] = test system: MALME-3M melanoma
[4] = test system: PC-3 prostate
[5] = test system: MDA-MB-435
[6] = test system: MOLT-4 leukemia
[7] = test system: ACHN renal
[8] = test system: M14 melanoma
[9] = test system: HOP-62 NSCLC
[10] = test system: HL-60(TB) leukemia
[11] = test system: IGROV1 ovarian
[12] = test system: UACC-257 melanoma
[13] = test system: SK-MEL-5 melanoma
[14] = test system: SK-MEL-28 melanoma
[15] = test system: BT-549 breast
[16] = test system: EKVX NSCLC
[17] = test system: TK-10 renal
[18] = test system: SF-268 CNS
[19] = test system: SNB-75 CNS
[20] = test system: COLO 205 colon
[21] = test system: NCI-H226 lung
[22] = test system: T-47D breast
[23] = test system: NCI-H460 lung
[24] = test system: SN12C renal
[25] = test system: CAKI-1 renal
[26] = test system: 786-0 renal
[27] = test system: HT29 colon
[28] = test system: MDA-MB-231 breast
[29] = test system: SK-OV-3 ovarian
[30] = test system: SNB-19 CNS
[31] = test system: MDA-N
[32] = test system: MCF7 breast
[33] = test system: U251 CNS
[34] = test system: OVCAR-3 ovarian
[35] = test system: NCI/ADR-RES ovarian
[36] = test system: DU-145 prostate
[37] = test system: OVCAR-5 ovarian
[38] = test system: KM12 colon
[39] = test system: OVCAR-4 ovarian
[40] = test system: SW-620 colon
[41] = test system: SF-295 CNS
[42] = test system: UACC-62 melanoma
[43] = test system: HCT-116 colon
[44] = test system: HS 578T breast
[45] = test system: A549 NSCLC
[46] = test system: RPMI-8226 leukemia
[47] = test system: K-562 leukemia
[48] = test system: HCC-2998 colon
[49] = test system: CCRF-CEM leukemia
[50] = test system: SK-MEL-2 melanoma
[51] = test system: OVCAR-8 ovarian
[52] = test system: HCT-15 colon
[53] = test system: UO-31 renal
[54] = test system: SF-539 CNS
[55] = test system: LOX IMVI melanoma
[56] = test system: A498 renal
[57] = test system: NCI-H522 lung

Measured: TGI

O=S(=O)(c1ccc(Cl)cc1)c1ccccc1C1=NCCN1
> 100 µM: [1] | [2] | [3] | [4] | [5] | [6] | [7] | [8] | [9] | [10] | [11] | [12] | [13] | [14] | [15] | [16] | [17] | [18] | [19] | [20] | [21] | [22] | [23] | [24] | [25] | [26] | [27] | [28] | [29] | [30] | [31] | [32] | [33] | [34] | [35] | [36] | [37] | [38] | [39] | [40] | [41] | [42] | [43] | [44] | [45] | [46] | [47] | [48] | [49] | [50] | [51] | [52] | [53]

CCO/C(O)=C(/C(=N)N1CCOCC1)C(=O)Nc1ccc(Cl)cc1
> 100 µM: [1] | [2] | [3] | [4] | [5] | [6] | [7] | [8] | [9] | [10] | [11] | [12] | [14] | [15] | [16] | [17] | [18] | [19] | [54] | [20] | [21] | [22] | [23] | [24] | [25] | [55] | [26] | [27] | [28] | [29] | [30] | [31] | [56] | [32] | [33] | [34] | [35] | [36] | [37] | [38] | [39] | [40] | [41] | [42] | [43] | [44] | [57] | [45] | [46] | [47] | [48] | [49] | [50] | [51] | [52]
